These results are taken from paper PMC3382171 (PLoS ONE, 2012).

Experiment in all cases: biochemical
In one assay the target is CDK2/CyclinA (Homo sapiens, UniProt P24941). The following applies: read-out: Upstate KSS % inhibition at 1uM. Here is the method: (§1) In these selectivity assays the concentration of ATP was set to the Km value of ATP for each kinase tested to allow for a relative potency comparison between the various kinases. The compounds were tested at 1 µM final concentration. […] (A) Kinase selectivity screen (KSS) performed at Upstate Biotechnology. […] (B) KSS performed at University of Dundee (Division of Signal Transduction Therapy). […] (PDF) Click here for additional data file.

The target of a further assay is T1, Tie2 (Homo sapiens, UniProt Q02763).
T1 construct: gene TEK
The note with it: read-out: Upstate KSS % inhibition at 1uM. Here is the method:
as §1

The target in a further assay is PLK1 (Homo sapiens, UniProt P53350). On the set-up: University of Dundee kinase panel, per cent inhibition of phosphorylation at ATP Km. The method, then: The METi and RAFi were screened against kinase panels (SelectScreen, Invitrogen; University of Dundee, Division of Signal Transduction Therapy, UK; Upstate Biotechnology/Millipore, Billerica, MA). In these selectivity assays the concentration of ATP was set to the Km value of ATP for each kinase tested to allow for a relative potency comparison between the various kinases. The compounds were tested at 1 µM final concentration. […] (A) Kinase selectivity screen (KSS) performed at Upstate Biotechnology. […] (B) KSS performed at University of Dundee (Division of Signal Transduction Therapy). […] (PDF) Click here for additional data file. Supplementary file pone.0039653.s002.pdf: Figure S2 Kinase Selectivity Screen of RAFi. (A) Kinase selectivity screen (KSS) performed at University of Dundee (Division of Signal Transduction Therapy). Values in % inhibition of phosphorylation given 1 µM of RAFi compared to control. (B) KSS performed at Invitrogen (Selectscreen Service) compared to control. Values in % inhibition of phosphorylation given 1 µM of RAFi. (C) Cell based dose response kinase inhibition of indicated kinases by RAFi. (PDF) Click here for additional data file.

The next assay addresses MAPKAPK3 (Homo sapiens, UniProt Q16644). Set-up: gene MAPKAPK3. The following applies: read-out: Dundee KSS % inhibition at 1uM. The method, then: as §1, with “The METi and RAFi were screened against kinase panels (SelectScreen, Invitrogen; University of Dundee, Division of Signal Transduction Therapy, UK; Upstate Biotechnology/Millipore, Billerica, MA). In” for “In”
The next assay has as its target T2, AURB (Homo sapiens, UniProt Q96GD4).
T2 construct: gene AURKB
On the set-up: University of Dundee kinase panel, percent inhibition of phosphorylation at 1 uM RAFi, ATP at Km. The note with it: read-out: Dundee KSS %inh at 1 uM. Here is the method:
(§2) The METi and RAFi were screened against kinase panels (SelectScreen, Invitrogen; University of Dundee, Division of Signal Transduction Therapy, UK; Upstate Biotechnology/Millipore, Billerica, MA). In these selectivity assays the concentration of ATP was set to the Km value of ATP for each kinase tested to allow for a relative potency comparison between the various kinases. The compounds were tested at 1 µM final concentration. […] Supplementary file pone.0039653.s002.pdf: Figure S2 Kinase Selectivity Screen of RAFi. (A) Kinase selectivity screen (KSS) performed at University of Dundee (Division of Signal Transduction Therapy). Values in % inhibition of phosphorylation given 1 µM of RAFi compared to control. (B) KSS performed at Invitrogen (Selectscreen Service) compared to control. Values in % inhibition of phosphorylation given 1 µM of RAFi. (C) Cell based dose response kinase inhibition of indicated kinases by RAFi. (PDF) Click here for additional data file.

The next assay concerns the target T3, CKIIa (Homo sapiens, UniProt P68400).
T3 construct: gene CSNK2A1
Set-up: University of Dundee kinase panel, percent inhibition of phosphorylation at 1 uM RAFi, ATP at Km. The following applies: read-out: Dundee KSS %inh at 1 uM. Here is the method: as §2

Another assay deals with CSK (Homo sapiens, UniProt P41240). Set-up: University of Dundee kinase panel, percent inhibition of phosphorylation at 1 uM RAFi, ATP at Km. The following applies: read-out: Dundee KSS %inh at 1 uM. The method, then: as §2
Another assay deals with DYRK3 (Homo sapiens, UniProt O43781). Set-up: University of Dundee kinase panel, percent inhibition of phosphorylation at 1 uM RAFi, ATP at Km. The note with it: read-out: Dundee KSS %inh at 1 uM. The method, then:
as §2

The target of the next assay is T4, MLCK (Homo sapiens, UniProt Q15746).
T4 construct: gene MYLK
On the set-up: University of Dundee kinase panel, percent inhibition of phosphorylation at 1 uM RAFi, ATP at Km. The following applies: read-out: Dundee KSS %inh at 1 uM. Here is the method:
as §2

The next assay addresses T5, P70S6K (Homo sapiens, UniProt P23443).
T5 construct: gene RPS6KB1
On the set-up: University of Dundee kinase panel, percent inhibition of phosphorylation at 1 uM RAFi, ATP at Km. The note with it: read-out: Dundee KSS %inh at 1 uM. The method, then: as §2

Another assay addresses PBK (Homo sapiens, UniProt Q96KB5). Set-up: University of Dundee kinase panel, percent inhibition of phosphorylation at 1 uM RAFi, ATP at Km. The note with it: read-out: Dundee KSS %inh at 1 uM. The method, then: as §2
A further assay concerns the target T6, PRK2 (Homo sapiens, UniProt Q16513).
T6 construct: gene PKN2
On the set-up: University of Dundee kinase panel, percent inhibition of phosphorylation at 1 uM RAFi, ATP at Km. The note with it: read-out: Dundee KSS %inh at 1 uM. The method, then: as §2

The target in the next assay is chicken CSK (Gallus gallus, UniProt P41239). Set-up: University of Dundee kinase panel, percent inhibition of phosphorylation at 1 uM RAFi, ATP at Km. The note with it: read-out: Dundee KSS %inh at 1 uM. The method, then:
as §2

Another assay addresses T7, p38 (Homo sapiens, UniProt Q16539).
T7 construct: gene MAPK14
Set-up: University of Dundee kinase panel, percent inhibition of phosphorylation at 1 uM RAFi, ATP at Km. The note with it: read-out: Dundee KSS %inh at 1 uM. The method, then: as §2

Sequence of PLK1 (P53350 whole entry): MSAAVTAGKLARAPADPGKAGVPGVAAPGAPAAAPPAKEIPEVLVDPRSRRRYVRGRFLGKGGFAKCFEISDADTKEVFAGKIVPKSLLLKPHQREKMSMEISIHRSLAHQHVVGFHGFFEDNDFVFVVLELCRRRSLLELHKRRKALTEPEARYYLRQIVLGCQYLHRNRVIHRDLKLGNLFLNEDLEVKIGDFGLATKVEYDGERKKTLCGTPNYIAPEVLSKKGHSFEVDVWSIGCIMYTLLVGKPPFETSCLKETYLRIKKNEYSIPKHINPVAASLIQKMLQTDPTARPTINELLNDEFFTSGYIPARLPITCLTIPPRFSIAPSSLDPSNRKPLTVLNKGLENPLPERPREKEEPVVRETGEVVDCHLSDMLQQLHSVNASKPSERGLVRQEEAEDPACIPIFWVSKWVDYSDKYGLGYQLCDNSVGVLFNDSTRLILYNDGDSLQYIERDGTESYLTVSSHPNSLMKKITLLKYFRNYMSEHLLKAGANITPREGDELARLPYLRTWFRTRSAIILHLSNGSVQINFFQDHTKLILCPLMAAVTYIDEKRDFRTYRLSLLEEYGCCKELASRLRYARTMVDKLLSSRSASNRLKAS
T5 sequence (P23443 whole entry): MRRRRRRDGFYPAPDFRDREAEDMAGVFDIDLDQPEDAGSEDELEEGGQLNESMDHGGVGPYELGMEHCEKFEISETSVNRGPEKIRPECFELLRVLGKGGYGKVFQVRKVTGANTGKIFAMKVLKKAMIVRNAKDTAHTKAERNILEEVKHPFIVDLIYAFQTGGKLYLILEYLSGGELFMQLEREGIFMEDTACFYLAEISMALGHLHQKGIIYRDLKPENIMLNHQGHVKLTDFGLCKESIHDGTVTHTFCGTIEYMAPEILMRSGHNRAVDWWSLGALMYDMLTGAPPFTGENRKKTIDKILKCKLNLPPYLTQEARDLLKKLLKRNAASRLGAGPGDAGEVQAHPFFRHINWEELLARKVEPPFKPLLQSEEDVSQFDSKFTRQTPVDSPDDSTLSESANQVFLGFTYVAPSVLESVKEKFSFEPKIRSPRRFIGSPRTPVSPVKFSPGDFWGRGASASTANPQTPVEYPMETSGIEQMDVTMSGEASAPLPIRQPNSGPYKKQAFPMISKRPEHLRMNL
T6 sequence (Q16513 whole entry): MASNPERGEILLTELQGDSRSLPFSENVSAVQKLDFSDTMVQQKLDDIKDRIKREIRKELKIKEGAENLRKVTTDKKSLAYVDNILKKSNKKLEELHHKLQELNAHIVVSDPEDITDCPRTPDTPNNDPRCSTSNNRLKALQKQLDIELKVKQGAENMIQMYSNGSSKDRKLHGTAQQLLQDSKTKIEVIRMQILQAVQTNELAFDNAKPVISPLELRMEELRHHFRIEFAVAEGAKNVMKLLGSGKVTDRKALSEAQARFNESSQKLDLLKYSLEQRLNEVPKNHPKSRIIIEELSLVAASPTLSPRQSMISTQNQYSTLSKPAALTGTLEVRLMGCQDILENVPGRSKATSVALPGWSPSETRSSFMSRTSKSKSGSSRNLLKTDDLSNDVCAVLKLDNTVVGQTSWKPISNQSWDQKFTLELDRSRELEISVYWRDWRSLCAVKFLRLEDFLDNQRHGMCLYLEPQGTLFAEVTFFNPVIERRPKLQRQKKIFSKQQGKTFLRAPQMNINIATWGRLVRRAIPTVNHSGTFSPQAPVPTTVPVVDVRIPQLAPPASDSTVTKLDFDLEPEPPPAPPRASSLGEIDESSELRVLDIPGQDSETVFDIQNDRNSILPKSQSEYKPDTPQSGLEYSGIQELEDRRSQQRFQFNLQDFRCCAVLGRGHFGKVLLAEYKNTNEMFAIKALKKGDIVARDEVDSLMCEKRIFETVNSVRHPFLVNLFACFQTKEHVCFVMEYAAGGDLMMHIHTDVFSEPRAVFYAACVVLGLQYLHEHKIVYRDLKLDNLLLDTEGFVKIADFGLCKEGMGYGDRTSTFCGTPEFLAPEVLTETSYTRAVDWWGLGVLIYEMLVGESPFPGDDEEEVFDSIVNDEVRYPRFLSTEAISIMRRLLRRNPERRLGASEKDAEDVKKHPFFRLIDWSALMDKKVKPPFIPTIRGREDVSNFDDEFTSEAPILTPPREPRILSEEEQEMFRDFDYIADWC
Sequence of PBK (Q96KB5 whole entry): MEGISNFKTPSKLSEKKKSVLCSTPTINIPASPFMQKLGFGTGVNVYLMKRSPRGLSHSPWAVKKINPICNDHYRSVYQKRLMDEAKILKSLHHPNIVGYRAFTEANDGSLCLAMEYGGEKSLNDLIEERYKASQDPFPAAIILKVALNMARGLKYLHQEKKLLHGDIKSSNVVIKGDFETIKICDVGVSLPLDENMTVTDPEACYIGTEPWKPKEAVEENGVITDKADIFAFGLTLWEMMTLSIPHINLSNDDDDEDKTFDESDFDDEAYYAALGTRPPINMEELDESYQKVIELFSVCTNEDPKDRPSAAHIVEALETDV
T2 sequence (Q96GD4 whole entry): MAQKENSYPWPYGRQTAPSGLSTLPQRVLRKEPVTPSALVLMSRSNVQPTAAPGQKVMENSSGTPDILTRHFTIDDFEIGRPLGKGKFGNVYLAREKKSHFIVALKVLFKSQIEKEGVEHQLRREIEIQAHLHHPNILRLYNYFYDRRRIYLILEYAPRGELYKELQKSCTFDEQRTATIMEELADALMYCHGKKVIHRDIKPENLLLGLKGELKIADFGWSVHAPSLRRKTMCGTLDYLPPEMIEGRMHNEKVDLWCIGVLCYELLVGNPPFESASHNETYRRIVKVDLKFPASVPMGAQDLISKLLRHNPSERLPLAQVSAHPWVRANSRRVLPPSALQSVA
T7 sequence (Q16539 whole entry): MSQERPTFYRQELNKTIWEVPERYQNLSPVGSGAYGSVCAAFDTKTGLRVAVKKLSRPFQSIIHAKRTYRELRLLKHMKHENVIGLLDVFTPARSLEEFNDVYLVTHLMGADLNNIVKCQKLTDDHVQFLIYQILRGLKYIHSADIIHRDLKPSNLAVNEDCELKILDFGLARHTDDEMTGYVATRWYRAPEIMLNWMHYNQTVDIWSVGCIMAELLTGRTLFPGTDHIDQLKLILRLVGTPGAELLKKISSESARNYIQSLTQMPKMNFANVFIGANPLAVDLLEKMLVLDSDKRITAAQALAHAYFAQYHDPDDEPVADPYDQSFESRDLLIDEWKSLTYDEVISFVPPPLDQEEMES
T4 sequence (Q15746 whole entry): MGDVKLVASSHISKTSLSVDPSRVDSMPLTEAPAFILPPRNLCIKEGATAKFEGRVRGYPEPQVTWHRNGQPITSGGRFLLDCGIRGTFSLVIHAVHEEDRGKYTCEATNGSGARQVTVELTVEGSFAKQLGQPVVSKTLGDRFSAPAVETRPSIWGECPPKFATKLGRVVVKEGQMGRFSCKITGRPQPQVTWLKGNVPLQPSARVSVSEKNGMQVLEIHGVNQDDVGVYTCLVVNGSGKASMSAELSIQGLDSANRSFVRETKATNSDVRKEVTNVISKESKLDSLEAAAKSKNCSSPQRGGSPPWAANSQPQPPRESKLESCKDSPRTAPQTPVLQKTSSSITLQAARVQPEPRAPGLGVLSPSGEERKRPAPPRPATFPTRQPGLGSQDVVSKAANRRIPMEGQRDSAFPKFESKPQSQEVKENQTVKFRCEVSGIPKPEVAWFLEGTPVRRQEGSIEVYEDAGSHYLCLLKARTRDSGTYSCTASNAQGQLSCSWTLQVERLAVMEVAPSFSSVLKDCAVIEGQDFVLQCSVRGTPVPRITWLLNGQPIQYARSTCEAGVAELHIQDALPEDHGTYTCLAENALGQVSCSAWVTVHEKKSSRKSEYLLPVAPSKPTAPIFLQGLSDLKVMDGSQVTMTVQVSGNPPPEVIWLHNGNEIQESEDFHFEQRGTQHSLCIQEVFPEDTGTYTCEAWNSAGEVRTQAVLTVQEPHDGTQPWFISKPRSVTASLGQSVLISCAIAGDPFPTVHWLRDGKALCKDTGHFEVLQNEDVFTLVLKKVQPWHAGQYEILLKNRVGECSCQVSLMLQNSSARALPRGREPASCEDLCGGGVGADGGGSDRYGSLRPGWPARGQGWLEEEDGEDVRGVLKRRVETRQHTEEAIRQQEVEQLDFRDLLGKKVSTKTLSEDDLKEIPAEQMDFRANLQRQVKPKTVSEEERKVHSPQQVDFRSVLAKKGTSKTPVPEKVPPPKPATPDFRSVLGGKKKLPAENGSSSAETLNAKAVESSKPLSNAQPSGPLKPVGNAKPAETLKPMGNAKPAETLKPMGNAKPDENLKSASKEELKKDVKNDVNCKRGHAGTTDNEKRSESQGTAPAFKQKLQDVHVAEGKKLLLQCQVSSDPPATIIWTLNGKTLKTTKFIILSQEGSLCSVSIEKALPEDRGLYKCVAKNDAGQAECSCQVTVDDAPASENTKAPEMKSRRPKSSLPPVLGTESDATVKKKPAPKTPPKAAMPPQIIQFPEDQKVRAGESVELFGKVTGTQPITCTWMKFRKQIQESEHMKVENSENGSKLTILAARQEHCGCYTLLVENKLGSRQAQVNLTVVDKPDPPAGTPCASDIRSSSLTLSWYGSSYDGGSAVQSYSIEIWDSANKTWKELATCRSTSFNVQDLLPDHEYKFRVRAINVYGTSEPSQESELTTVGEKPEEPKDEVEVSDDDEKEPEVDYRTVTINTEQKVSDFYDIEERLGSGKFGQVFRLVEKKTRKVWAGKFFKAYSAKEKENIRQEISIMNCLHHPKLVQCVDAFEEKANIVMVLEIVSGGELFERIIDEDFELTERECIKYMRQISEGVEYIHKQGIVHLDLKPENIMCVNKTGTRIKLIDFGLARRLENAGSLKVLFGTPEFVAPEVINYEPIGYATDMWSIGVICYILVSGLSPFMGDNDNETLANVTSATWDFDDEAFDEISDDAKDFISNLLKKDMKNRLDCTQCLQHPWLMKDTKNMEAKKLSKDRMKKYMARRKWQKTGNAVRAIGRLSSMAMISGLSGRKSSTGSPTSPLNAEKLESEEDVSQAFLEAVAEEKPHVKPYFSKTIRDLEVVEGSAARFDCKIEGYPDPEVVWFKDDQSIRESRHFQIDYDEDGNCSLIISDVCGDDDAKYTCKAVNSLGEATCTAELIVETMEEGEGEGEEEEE

`OCCn1cc(-c2cnc3nnn(Cc4ccc5ncccc5c4)c3n2)cn1` [METi, PF-04217903]: the inhibition at 1 µM on CDK2/CyclinA was 0%; on Tie2, -32%; on PLK1 (read-out: Dundee KSS % inhibition at 1uM) it was 13.6%; on MAPKAPK3, 18.6%. The “Dundee KSS % inhibition at 1uM” value at PLK1 (inhibitor, Dundee KSS % inhibition at 1uM, 1 µM) is 10.1%.
For `N#CCCNc1nccc(-c2cn(CC(F)F)nc2-c2cnc3[nH]ccc3c2)n1` [RAFi, PF-04880594], the inhibition at 1 µM was 16% on AURB; -2% at CKIIa; -4% on CSK; 11% on DYRK3; 22% at MLCK; -5% at P70S6K. For the same molecule, the inhibition at 1 µM on PBK is -2%; at PRK2, 16%; on chicken CSK, 27%; at p38, 96%.
